ChEMBL document CHEMBL5038625, “Application of the dual-tail approach for the design and synthesis of novel Thiopyrimidine-Benzenesulfonamide hybrids as selective carbonic anhydrase inhibitors” (Eur J Med Chem, 2022)

Tests used:
Carbonic anhydrase 9 = Carbonic anhydrase 9 (Homo sapiens, UniProt Q16790); experiment: Inhibition of human CA9 preincubated for 15 mins by phenol red dye based stopped flow CO2 hydration assay
Carbonic anhydrase 1 = Carbonic anhydrase 1 (Homo sapiens, UniProt P00915); experiment: Inhibition of human CA1 preincubated for 15 mins by phenol red dye based stopped flow CO2 hydration assay
Carbonic anhydrase 2 = Carbonic anhydrase 2 (Homo sapiens, UniProt P00918); experiment: Inhibition of human CA2 preincubated for 15 mins by phenol red dye based stopped flow CO2 hydration assay
HL-60 = experiment: Antiproliferative activity against human HL-60 cells assessed as cell growth inhibition at 10 uM incubated for 24 hrs by sulforhodamine B assay; format: functional; conditions: read-out: GI
SF-539 = experiment: Antiproliferative activity against human SF-539 cells assessed as cell growth inhibition at 10 uM incubated for 24 hrs by sulforhodamine B assay; format: functional; conditions: read-out: GI
MCF7 [1] = experiment: Antiproliferative activity against human MCF7 cells assessed as cell growth inhibition at 10 uM incubated for 24 hrs by sulforhodamine B assay; format: functional; conditions: read-out: GI
HOP-92 = experiment: Antiproliferative activity against human HOP-92 cells assessed as cell growth inhibition at 10 uM incubated for 24 hrs by sulforhodamine B assay; format: functional; conditions: read-out: GI
HCT-15 = experiment: Antiproliferative activity against human HCT-15 cells assessed as cell growth inhibition at 10 uM incubated for 24 hrs by sulforhodamine B assay; format: functional; conditions: read-out: GI
SR = experiment: Antiproliferative activity against human SR cells assessed as cell growth inhibition at 10 uM incubated for 24 hrs by sulforhodamine B assay; format: functional; conditions: read-out: GI
DU-145 = experiment: Antiproliferative activity against human DU-145 cells assessed as cell growth inhibition at 10 uM incubated for 24 hrs by sulforhodamine B assay; format: functional; conditions: read-out: GI
CAKI-1 = experiment: Antiproliferative activity against human CAKI-1 cells assessed as cell growth inhibition at 10 uM incubated for 24 hrs by sulforhodamine B assay; format: functional; conditions: read-out: GI
K562 = experiment: Antiproliferative activity against human K562 cells assessed as cell growth inhibition at 10 uM incubated for 24 hrs by sulforhodamine B assay; format: functional; conditions: read-out: GI
UO-31 = experiment: Antiproliferative activity against human UO-31 cells assessed as cell growth inhibition at 10 uM incubated for 24 hrs by sulforhodamine B assay; format: functional; conditions: read-out: GI
LOX IMVI = experiment: Antiproliferative activity against human LOX IMVI cells assessed as cell growth inhibition at 10 uM incubated for 24 hrs by sulforhodamine B assay; format: functional; conditions: read-out: GI
Malme-3M = experiment: Antiproliferative activity against human Malme-3M cells assessed as cell growth inhibition at 10 uM incubated for 24 hrs by sulforhodamine B assay; format: functional; conditions: read-out: GI
Hs-578T = experiment: Antiproliferative activity against human HS-578T cells assessed as cell growth inhibition at 10 uM incubated for 24 hrs by sulforhodamine B assay; format: functional; conditions: read-out: GI
NCI-H23 = experiment: Antiproliferative activity against human NCI-H23 cells assessed as cell growth inhibition at 10 uM incubated for 24 hrs by sulforhodamine B assay; format: functional; conditions: read-out: GI
MCF7 [2] = experiment: Antiproliferative activity against human MCF7 cells assessed as reduction in cell viability incubated for 24 hrs by sulforhodamine B assay; format: functional, cell-based; conditions: MCF7, 24 h
MDA-MB-231 [3] = experiment: Antiproliferative activity against human MDA-MB-231 cells assessed as reduction in cell viability incubated for 24 hrs by sulforhodamine B assay; format: functional, cell-based; conditions: MDA-MB-231, 24 h
MDA-MB-231 [4] = experiment: Antiproliferative activity against human MDA-MB-231 cells assessed as cell growth inhibition at 10 uM incubated for 24 hrs by sulforhodamine B assay; format: functional; conditions: read-out: GI
MOLT-4 = experiment: Antiproliferative activity against human MOLT-4 cells assessed as cell growth inhibition at 10 uM incubated for 24 hrs by sulforhodamine B assay; format: functional; conditions: read-out: GI
RXF 393 = experiment: Antiproliferative activity against human RXF 393 cells assessed as cell growth inhibition at 10 uM incubated for 24 hrs by sulforhodamine B assay; format: functional; conditions: read-out: GI
PC-3 = experiment: Antiproliferative activity against human PC-3 cells assessed as cell growth inhibition at 10 uM incubated for 24 hrs by sulforhodamine B assay; format: functional; conditions: read-out: GI
T47D [5] = experiment: Antiproliferative activity against human T47D cells assessed as reduction in cell viability incubated for 24 hrs by sulforhodamine B assay; format: functional, cell-based
NCI-H226 = experiment: Antiproliferative activity against human NCI-H226 cells assessed as cell growth inhibition at 10 uM incubated for 24 hrs by sulforhodamine B assay; format: functional; conditions: read-out: GI
SN12C = experiment: Antiproliferative activity against human SN12C cells assessed as cell growth inhibition at 10 uM incubated for 24 hrs by sulforhodamine B assay; format: functional; conditions: read-out: GI
CCRF-CEM = experiment: Antiproliferative activity against human CCRF-CEM cells assessed as cell growth inhibition at 10 uM incubated for 24 hrs by sulforhodamine B assay; format: functional; conditions: read-out: GI
HCT-116 = experiment: Antiproliferative activity against human HCT-116 cells assessed as cell growth inhibition at 10 uM incubated for 24 hrs by sulforhodamine B assay; format: functional; conditions: read-out: GI
T47D [6] = experiment: Antiproliferative activity against human T47D cells assessed as cell growth inhibition at 10 uM incubated for 24 hrs by sulforhodamine B assay; format: functional; conditions: read-out: GI
NCI-H522 = experiment: Antiproliferative activity against human NCI-H522 cells assessed as cell growth inhibition at 10 uM incubated for 24 hrs by sulforhodamine B assay; format: functional; conditions: read-out: GI
UACC-62 = experiment: Antiproliferative activity against human UACC-62 cells assessed as cell growth inhibition at 10 uM incubated for 24 hrs by sulforhodamine B assay; format: functional; conditions: read-out: GI

Sequence of Carbonic anhydrase 1 (P00915 whole entry): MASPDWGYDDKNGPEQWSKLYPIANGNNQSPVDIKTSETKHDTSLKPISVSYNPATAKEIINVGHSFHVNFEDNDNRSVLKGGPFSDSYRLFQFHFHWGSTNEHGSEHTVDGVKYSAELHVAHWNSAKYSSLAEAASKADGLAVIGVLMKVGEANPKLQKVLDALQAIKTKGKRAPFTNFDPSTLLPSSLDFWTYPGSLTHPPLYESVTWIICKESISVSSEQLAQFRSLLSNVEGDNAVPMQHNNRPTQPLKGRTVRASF

| SMILES | Ki (Carbonic anhydrase 9) [µM] | Ki (Carbonic anhydrase 1) [µM] | Ki (Carbonic anhydrase 2) [µM] | inhibition of growth at 10 µM (SF-539) [%] | inhibition of growth at 10 µM (MCF7 [1]) [%] | inhibition of growth at 10 µM (HOP-92) [%] | inhibition of growth at 10 µM (HCT-15) [%] | inhibition of growth at 10 µM (SR) [%] | inhibition of growth at 10 µM (CAKI-1) [%] | inhibition of growth at 10 µM (K562) [%] | inhibition of growth at 10 µM (UO-31) [%] | inhibition of growth at 10 µM (LOX IMVI) [%] | inhibition of growth at 10 µM (NCI-H23) [%] | IC50 (MCF7 [2]) [µM] | IC50 (MDA-MB-231 [3]) [µM] | IC50 (T47D [5]) [µM] | also measured |
| --- | --- | --- | --- | --- | --- | --- | --- | --- | --- | --- | --- | --- | --- | --- | --- | --- | --- |
| COc1ccc(C(=O)CSc2nc(Nc3ccc(S(N)(=O)=O)cc3)c(C#N)c(-c3cc(OC)ccc3OC)n2)cc1 | 8.93 | > 20 |  |  |  |  |  |  |  |  |  |  |  |  |  |  |  |
| COc1ccc(OC)c(-c2nc(SCC(=O)c3ccccc3)nc(Nc3cccc(S(N)(=O)=O)c3)c2C#N)c1 | 5.05 |  | > 20 |  |  |  |  |  |  |  |  |  |  |  |  |  |  |
| NS(=O)(=O)c1cccc(Nc2cc(-c3ccccc3)nc(SCC(=O)c3ccccc3)n2)c1 | 0.724 |  |  |  |  |  |  |  |  |  |  |  |  |  |  |  |  |
| Cc1ccc(-c2nc(SCC(=O)c3ccc(Br)cc3)nc(Nc3ccc(S(N)(=O)=O)cc3)c2C#N)cc1 | 8.74 | > 20 | > 20 | 17.1 | 16.5 | 40.4 | 11.3 | 11.4 | 13.7 | 8 | 22.4 | 11.8 | 6.49 |  |  |  | inhibition of growth at 10 µM (HL-60): < 5%; inhibition of growth at 10 µM (DU-145): 47.5%; inhibition of growth at 10 µM (Malme-3M): 8.67%; inhibition of growth at 10 µM (Hs-578T): 14.3% |
| Cc1ccc(-c2nc(SCC(=O)c3ccc(Br)cc3)nc(Nc3cccc(S(N)(=O)=O)c3)c2C#N)cc1 | 0.0887 |  |  | 17.5 | 7.76 | 67.2 | 5.65 | 11.3 | 20 | 6.32 | 36.7 | 11.8 | 7.38 | > 100 | > 100 | 60 | inhibition of growth at 10 µM (MDA-MB-231 [4]): 6.75%; inhibition of growth at 10 µM (MOLT-4): 9.7%; inhibition of growth at 10 µM (RXF 393): 17.6%; inhibition of growth at 10 µM (PC-3): 13.4%; inhibition of growth at 10 µM (NCI-H226): 12.7%; inhibition of growth at 10 µM (SN12C): 5.02%; inhibition of growth at 10 µM (CCRF-CEM): 6.1%; inhibition of growth at 10 µM (HCT-116): 8.06%; inhibition of growth at 10 µM (T47D [6]): 6.01% |
| COc1ccc(C(=O)CSc2nc(Nc3ccc(S(N)(=O)=O)cc3)c(C#N)c(C(C)C)n2)cc1 | 0.0918 |  |  | 5.08 |  |  |  | 11.7 | 5 | 10.9 | 16.5 |  |  | 19.8 | 50.4 | 60 | inhibition of growth at 10 µM (NCI-H522): 5.22%; inhibition of growth at 10 µM (MDA-MB-231 [4]): 5.52%; inhibition of growth at 10 µM (NCI-H226): 7.41%; inhibition of growth at 10 µM (UACC-62): 8.47% |
| Cc1ccc(-c2nc(SCC(=O)c3ccccc3)nc(Nc3cccc(S(N)(=O)=O)c3)c2C#N)cc1 | 7.64 | > 20 | > 20 | 14.1 | 11.9 | 65.2 | 5.35 | 7.6 | 13.6 |  | 24.4 | 11.3 | 5.21 |  |  |  | inhibition of growth at 10 µM (RXF 393): 12.6%; inhibition of growth at 10 µM (PC-3): 6.2% |
| NS(=O)(=O)c1ccc(Nc2cc(-c3ccccc3)nc(SCC(=O)c3ccccc3)n2)cc1 | 0.0858 |  |  |  |  |  |  |  |  |  |  |  |  | 44.5 | 26 | 44.4 |  |
